According to patent publication US20160317676A1, “METHODS AND COMPOSITIONS FOR DELIVERY OF NUCLEIC ACIDS” (Tekmira Pharmaceuticals Corporation, priority 2009, published 2016):
Where “and” joins values, the source holds several entries; their conditions need not be identical. Identical values can stand only once.

Assays:
Factor VII = assay: In vivo mouse Factor VII silencing model (FVII siRNA in lipid formulations, serum FVII chromogenic assay); parameters: species or system C57Bl/6 mice; conditions: for ED50: dose giving 50% reduction in plasma FVII vs control animals, i.v. tail vein, 24 h, FVII siRNA formulation; for Lipid A ED50: Lipid A by itself; for Lipid B ED50: Lipid B by itself; for % residual FVII: 40% cationic lipid/10% DSPC/40% cholesterol/10% PEG-DMG, FIG. 4
Protocol: C57BL/6 mice (Charles River Labs, MA) received either saline or siRNA in desired formulations via tail vein injection at a volume of 0.01 mL/g. At various time points post-administration, animals were anesthesized by isofluorane inhalation and blood was collected into serum separator tubes by retro orbital bleed. Serum levels of Factor VII protein were determined in samples using a chromogenic assay (Coaset Factor VII, DiaPharma Group, OH or Biophen FVII, Aniara Corporation, OH) according to manufacturer protocols. A standard curve was generated using serum collected from saline treated animals. In experiments where liver mRNA levels were assessed, at various time points post-administration, animals were sacrificed and livers were harvested and snap frozen in liquid nitrogen. Frozen liver tissue was ground into powder. Tissue lysates were prepared and liver mRNA levels of Factor VII and apoB were determined using a branched DNA assay (QuantiGene Assay, Panomics, CA).
Factor VII (FVII), a prominent protein in the coagulation cascade, is synthesized in the liver (hepatocytes) and secreted into the plasma. FVII levels in plasma can be determined by a simple, plate-based colorimetric assay. As such, FVII represents a convenient model for determining sirna-mediated downregulation of hepatocyte-derived proteins, as well as monitoring plasma concentrations and tissue distribution of the nucleic acid lipid particles and siRNA.
C57BL/6 mice (Charles River Labs, MA) received either saline or formulated siRNA via tail vein injection. At various time points after administration, serum samples were collected by retroorbital bleed. Serum levels of Factor VII protein were determined in samples using a chromogenic assay (Biophen FVII, Aniara Corporation, OH). To determine liver mRNA levels of Factor VII, animals were sacrificed and livers were harvested and snap frozen in liquid nitrogen. Tissue lysates were prepared from the frozen tissues and liver mRNA levels of Factor VII were quantified using a branched DNA assay (QuantiGene Assay, Panomics, CA).
FVII activity was evaluated in FVII siRNA-treated animals at 48 hours after intravenous (bolus) injection in C57BL/6 mice. FVII was measured using a commercially available kit for determining protein levels in serum or tissue, following the manufacturer's instructions at a microplate scale. FVII reduction was determined against untreated control mice, and the results were expressed as % Residual FVII. Two dose levels (0.05 and 0.005 mg/kg FVII siRNA) were used in the screen of each novel liposome composition.
Test formulations were initially assessed for their FVII knockdown in female 7-9 week old, 15-25 g, female C57B1/6 mice at 0.1, 0.3, 1.0 and 5.0 mg/kg with 3 mice per treatment group. All studies included animals receiving either phosphate-buffered saline (PBS, Control group) or a benchmark formulation. Formulations were diluted to the appropriate concentration in PBS immediately prior to testing. Mice were weighed and the appropriate dosing volumes calculated (10 μl/g body weight). Test and benchmark formulations as well as PBS (for Control animals) were administered intravenously via the lateral tail vein. Animals were anesthetised 24 h later with an intraperitoneal injection of Ketamine/Xylazine and 500-700 μl of blood was collected by cardiac puncture into serum separator tubes (BD Microtainer). Blood was centrifuged at 2,000×g for 10 min at 15° C. and serum was collected and stored at −70° C. until analysis. Serum samples were thawed at 37° C. for 30 min, diluted in PBS and aliquoted into 96-well assay plates. Factor VII levels were assessed using a chromogenic assay (Biophen FVII kit, Hyphen BioMed) according to manufacturer's instructions and absorbance measured in microplate reader equipped with a 405 nm wavelength filter. […]

[1] = Determination of pKa of formulated lipids with the fluorescent probe TNS
Protocol: The pKa values for the different ionizable cationic lipids were determined essentially as described (Eastman et al., 1992 Biochemistry 31:4262-4268, which is incorporated by reference in its entirety) using the fluorescent probe 2-(p-toluidino)-6-naphthalenesulfonic acid (TNS), which is non-fluorescent in water but becomes appreciably fluorescent when bound to membranes. Vesicles composed of cationic lipid/DSPC/CH/PEG-c-DOMG (40:10:40:10 mole ratio) were diluted to 0.1 mM in buffers (130 mM NaCl, 10 mM CH3COONH4, 10 mM MES, 10 mM HEPES) of various pH values ranging from 2 to 11. An aliquot of the TNS aqueous solution (1 μM final) was added to the diluted vesicles and after a 30 second equilibration period the fluorescent of the TNS-containing solution was measured at excitation and emission wavelengths of 321 nm and 445 nm, respectively. The pKa of the cationic lipid-containing vesicles was determined by plotting the measured fluorescence against the pH of the solutions and fitting the data to a Sigmodial curve using the commercial graphing program IgorPro.

[2] = probe 2-(p-toluidino)-6-naphthalenesulfonic acid (TNS), 1 µM final, pKa, TNS assay, vesicles cationic lipid/DSPC/CH/PEG-c-DOMG 40:10:40:10
[3] = TNS assay, vesicles cationic lipid/DSPC/CH/PEG-c-DOMG 40:10:40:10

| pKa [1, 2] | Structure (SMILES) | ED50 (Factor VII) | other results |
| --- | --- | --- | --- |
| 10 | CCCCC/C=C\C/C=C\CCCCCCCCC(CCCCCCCC/C=C\C/C=C\CCCCC)CN(C)CCNC(=N)N [ALNY-139] | 5.00 mg/kg | – |
| 6.63 | CCCCC/C=C\C/C=C\CCCCCCCCC1(CCCCCCCC/C=C\C/C=C\CCCCC)O[C@@H]2C3CC([C@H](N(C)C)C3)[C@@H]2O1 (stereo partly drawn) [ALNY-171] | 0.25 mg/kg | – |
| 10 | CCCCC/C=C\C/C=C\CCCCCCCCC1(CCCCCCCC/C=C\C/C=C\CCCCC)OCC(NC(=N)N)O1 (stereo not drawn) [ALNY-232] | – | – |
| 6.26 | CCCCC/C=C\C/C=C\C/C=C\C/C=C\CCCCC1(CCCC/C=C\C/C=C\C/C=C\C/C=C\CCCCC)OCC(CCN(C)C)O1 (stereo not drawn) [DAra-K5-C2-DMA] | 0.52 mg/kg | – |
| 6.59 | CC/C=C\C/C=C\C/C=C\CCCCCCCCC1(CCCCCCCC/C=C\C/C=C\C/C=C\CC)OCC(CCN(C)C)O1 (stereo not drawn) [DLen-K5-C2-DMA] | 0.05 mg/kg | – |
| 6.73 | CCCCC/C=C\C/C=C\CCCCCCCCC1(CCCCCCCC/C=C\C/C=C\CCCCC)OCCC(CCN(C)C)O1 (stereo not drawn) [DLin-K6A-C2-DMA] | 0.25 mg/kg | – |
| 6.95 | CCCCC/C=C\C/C=C\CCCCCCCCC1(CCCCCCCC/C=C\C/C=C\CCCCC)OCCC(CCCN(C)C)O1 (stereo not drawn) [DLin-K6A-C3-DMA] | 0.70 mg/kg | – |
| 5.97 | CCCCC/C=C\C/C=C\CCCCCCCCC1(CCCCCCCC/C=C\C/C=C\CCCCC)OCC(CN(C)C)CO1 [DLin-K6S-C1-DMA] | 0.10 mg/kg | – |
| 7.25 | CCCCC/C=C\C/C=C\CCCCCCCCC1(CCCCCCCC/C=C\C/C=C\CCCCC)OCC(CCN(C)C)CO1 [DLin-K6S-C2-DMA] | 3.00 mg/kg | – |
| 7.61 | CCCCC/C=C\C/C=C\CCCCCCCCC1(CCCCCCCC/C=C\C/C=C\CCCCC)OCC(CCCCN(C)C)CO1 [DLin-K6S-C4-DMA] | 4.00 mg/kg | – |
| 5.94 | CCCCC/C=C\C/C=C\CCCCCCCCC1(CCCCCCCC/C=C\C/C=C\CCCCC)OCC(CN(C)C)O1 (stereo not drawn) [DLin-K-DMA (Biofine)] | 0.25 mg/kg | – |
| 6.79 | CCCCC/C=C\C/C=C\CCCCCCCCC1(CCCCCCCC/C=C\C/C=C\CCCCC)OC[C@@H](CCN(C)C)O1 [DLin-K-XTC2-DMA-(R)] | 0.10 mg/kg | – |
| 6.65 | CCCCC/C=C\C/C=C\CCCCCCCCC1(CCCCCCCC/C=C\C/C=C\CCCCC)OC[C@H](CCN(C)C)O1 [DLin-K-XTC2-DMA-(S)] | 0.10 mg/kg | – |

The next lines start with the molecule.

| Structure (SMILES) | pKa [1, 2] | ED50 (Factor VII) | other results |
| --- | --- | --- | --- |
| CCCCC/C=C\C/C=C\CCCCCCCCC(CCCCCCCC/C=C\C/C=C\CCCCC)ON=C(C)CCN(C)C [ALNY-149] | – | – | Lipid A ED50 (Factor VII; formulation 40:10:40:10): 0.050 mg/kg; pKa ([1]; probe 2-(p-toluidino)-6-naphthalenesulfonic acid (TNS), 1 µM final, Lipid A pKa (±0.2), Lipid A by itself, formulation 40:10:40:10 (cationic lipid:DSPC:cholesterol:PEG-DMG)): 6.05 |
| CCCCC/C=C\C/C=C\CCCCCCCC1OC2(CCN(C)CC2)OC1CCCCCCC/C=C\C/C=C\CCCCC (stereo not drawn) [ALNY-156] | – | <0.1 mg/kg | pKa [1, 3]: 6.08 |
| CCCCC/C=C\C/C=C\CCCCCCCCC(CCCCCCCC/C=C\C/C=C\CCCCC)CN(C)C [ALNY-181] | – | 0.25 mg/kg | – |
| CCCCCCCCCCC(O)CN(CCN1CCN(CCN(CC(O)CCCCCCCCCC)CC(O)CCCCCCCCCC)CC1)CCN(CC(O)CCCCCCCCCC)CC(O)CCCCCCCCCC (stereo not drawn) [Compound C12-200, reference compound] | – | – | Lipid B ED50 (Factor VII; formulation 40:10:40:10): 0.030 mg/kg; Lipid B pKa (±0.2) ([1]; Lipid B by itself, formulation 40:10:40:10): 6.47 |
| CC/C=C\C/C=C\C/C=C\C/C=C\C/C=C\C/C=C\CCCC1(CCC/C=C\C/C=C\C/C=C\C/C=C\C/C=C\C/C=C\CC)OCC(CCN(C)C)O1 (stereo not drawn) [DDha-K5-C2-DMA] | 6.09 | 0.20 mg/kg | – |
| CCCCC/C=C\C/C=C\C/C=C\CCCCCC(CCCCC/C=C\C/C=C\C/C=C\CCCCC)OC(=O)CCCN(C)C [DLen(γ)-M-C3-DMA] | 6.3 | 0.08 mg/kg | – |
| CCCCC/C=C\C/C=C\C/C=C\CCCCCC(CCCCC/C=C\C/C=C\C/C=C\CCCCC)OC(=O)CCCCN(C)C [DLen(γ)-M-C4-DMA] | 6.75 | 0.50 mg/kg | – |
| CCCCC/C=C\C/C=C\CCCCCCCC(=O)OCC(CN(C)C)OC(=O)CCCCCCC/C=C\C/C=C\CCCCC (stereo not drawn) [DLin-DAP-DMA] | 5.67 | – | – |
| CCCCC/C=C\C/C=C\CCCCCCCCC1(CCCCCCCC/C=C\C/C=C\CCCCC)OCC(CCN(C)C)O1 (stereo not drawn) [DLin-K5-C2-DMA] | – | 0.10 mg/kg | pKa ([1]; probe 2-(p-toluidino)-6-naphthalenesulfonic acid (TNS), 1 µM final): 6.68 |
| CCCCC/C=C\C/C=C\CCCCCCCCC1(CCCCCCCC/C=C\C/C=C\CCCCC)OCC(CN(C)C)O1 (stereo not drawn) [DLin-K-DMA (CDRD)] | – | 0.40 mg/kg | pKa [1, 3]: 5.91 |
| CCCCC/C=C\C/C=C\CCCCCCCCC(CCCCCCCC/C=C\C/C=C\CCCCC)OC(=O)CCN(C)C [DLin-M-C2-DMA] | – | 0.60 mg/kg and 0.6 mg/kg | % residual FVII (Factor VII; 0.05 mg/kg siRNA): about 90%; % residual FVII (Factor VII; 0.10 mg/kg siRNA): about 90%; Lipid A ED50 (Factor VII; formulation 40:10:40:10): 0.600 mg/kg; Lipid A pKa (±0.2) ([1]; Lipid A by itself, formulation 40:10:40:10 (cationic lipid:DSPC:cholesterol:PEG-DMG)): 5.64; pKa [1, 3]: 5.64 |
| CCCCC/C=C\C/C=C\CCCCCCCCC(CCCCCCCC/C=C\C/C=C\CCCCC)OC(=O)CCCN(CC)CC [DLin-M-C3-DEA] | – | 0.30 mg/kg and 0.3 mg/kg | pKa [1, 3]: 6.17 |
| CCCCC/C=C\C/C=C\CCCCCCCCC(CCCCCCCC/C=C\C/C=C\CCCCC)OC(=O)CCCN(C(C)C)C(C)C [DLin-M-C3-DIPA] | – | 4.50 mg/kg and 4.5 mg/kg | – |
| CCCCC/C=C\C/C=C\CCCCCCCCC(CCCCCCCC/C=C\C/C=C\CCCCC)OC(=O)CCCN(C)C [DLin-M-C3-DMA] | – | 0.03 mg/kg | Lipid A ED50 (Factor VII; formulation 40:10:40:10): 0.030 mg/kg; Lipid A ED50 (Factor VII; formulation 50:10:38.5:1.5): 0.010 mg/kg; Lipid B ED50 (Factor VII; formulation 40:10:40:10): 0.030 mg/kg |
| CCCCC/C=C\C/C=C\CCCCCCCCC(CCCCCCCC/C=C\C/C=C\CCCCC)OC(=O)CCCNCC [DLin-M-C3-EA] | – | 5.00 mg/kg | pKa [1, 3]: 7.62 |
| CCCCC/C=C\C/C=C\CCCCCCCCC(CCCCCCCC/C=C\C/C=C\CCCCC)OC(=O)CCCNC [DLin-M-C3-MA] | – | 5.00 mg/kg | – |
| CCCCC/C=C\C/C=C\CCCCCCCCC(CCCCCCCC/C=C\C/C=C\CCCCC)OC(=O)CCCN(C)CC [DLin-M-C3-MEA] | – | 0.03 mg/kg | pKa [1, 3]: 6.21 |
| CCCCC/C=C\C/C=C\CCCCCCCCC(CCCCCCCC/C=C\C/C=C\CCCCC)OC(=O)CCCCCN(C)C [DLin-M-C5-DMA] | – | 0.65 mg/kg | – |
| CCCCC/C=C\C/C=C\CCCCCCCCC(CCCCCCCC/C=C\C/C=C\CCCCC)OC(=O)C(CCN(C)C)C(=O)OC(CCCCCCCC/C=C\C/C=C\CCCCC)CCCCCCCC/C=C\C/C=C\CCCCC [TLin-MAL-C2-DMA] | 3.93 | – | – |
